Source: BindingDB's records for patent US10538523 (PFIZER LIMITED, 2020)
pKi: −log10 of the molar value.

Target: T1, Gamma-aminobutyric acid receptor subunit alpha-2 (Homo sapiens, UniProt P18507+P47869+P47870)
T1 sequence (P47869 whole entry): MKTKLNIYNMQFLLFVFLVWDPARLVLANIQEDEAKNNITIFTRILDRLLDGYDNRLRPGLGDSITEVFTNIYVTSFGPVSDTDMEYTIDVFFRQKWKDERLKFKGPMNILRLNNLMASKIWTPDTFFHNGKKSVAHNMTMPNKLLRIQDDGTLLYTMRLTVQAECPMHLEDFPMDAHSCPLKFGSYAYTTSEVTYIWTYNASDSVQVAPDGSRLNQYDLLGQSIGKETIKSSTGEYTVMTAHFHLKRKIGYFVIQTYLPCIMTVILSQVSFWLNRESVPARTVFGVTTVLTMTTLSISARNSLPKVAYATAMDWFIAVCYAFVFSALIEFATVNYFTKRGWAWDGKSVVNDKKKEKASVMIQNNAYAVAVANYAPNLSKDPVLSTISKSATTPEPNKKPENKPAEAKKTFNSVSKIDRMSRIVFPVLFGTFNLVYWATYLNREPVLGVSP
Experiment: Binding Assay
Experimental: 100 ul of radioligand and 100 ul of membrane in 50 mM Tris-HCl and 0.05% F127 with 1 ul of test compound was incubated for 2 hours to allow the reaction to achieve equilibrium, and then harvested onto filter plates, dried and counted on a TopCount NXT. The data was analysed, and the Ki values were presented as the geometric mean of at least two replicates.

In the case of `CCn1ncc2c(-c3ccc(F)c(-c4cc5c(cc4OC)C(=O)N(C)C5)c3)cnnc21` [US10538523, Example 3], the pKi was 7.93.
